Data taken from patent publication US20030232409A1, “Immortal porcine cells” (Regents of the University of Minnesota, priority 2002, published 2003).

Key:
PEGE primary cells [1] = assay: Short-circuit current (Isc) of cell monolayers in Ussing chambers, primary cells; format: cell-based, porcine
Protocol: (§1) PEGE primary cells, isolated and cultured as previously described (Deachapunya and O'Grady, J. of Physiology, 508 (Part 1), 31-47 (1998)), and PEGE1 cells were used. Transepithelial resistance of cell monolayers was measured using the EVOM epithelial voltohmmeter coupled to Ag/AgCl “chopstick” electrodes (World Precision Instrument, New Haven, Conn.). After 10 days, the confluent culture inserts were mounted in Ussing Chambers, bathed on both sides with standard porcine Ringer solution which was maintained at 37° C., and bubbled with 95% O2 and 5% CO2. Transepithelial potential difference and Isc were measured with the use of voltage-clamp circuitry from JWT Engineering (Overland Park, Kans.). The data from the voltage clamp experiments was digitized, stored and analyzed using Workbench data acquisition software (Kent Scientific Corporation, Litchfield, Conn.) and recorded with a Compaq pentium microcomputer.
(§2) All values are presented as means±SEM. n is the number of monolayers. The differences between control and treatment means were analyzed using a t-test for paired or unpaired means where appropriate. A value of p<0.05 was considered statistically significant.

PEGE primary cells [2] = conditions: serum-containing conditions, Deachapunya and O'Grady 1998; cited from earlier work
PEGE1 cells = assay: Short-circuit current (Isc) of cell monolayers in Ussing chambers, immortalized cells; format: cell-based, porcine; conditions: for Mean 8 cpt cAMP-stimulated NPPB-sensitive Isc / Mean 8 cpt cAMP-stimulated Isc: n=6
Protocol: as §1, §2

Compound: CCCCC[C@H](O)/C=C/[C@H]1[C@H](O)CC(=O)[C@@H]1C/C=C\CCCC(=O)O [PGE2]
- Mean PGE2-stimulated Isc (PEGE primary cells [1]; passage 4, 3 μM PGE2, n=5): 40.3 μA
- Effect of stimulation on Isc (PEGE primary cells [2]): increase in Isc
- Mean PGE2-stimulated Isc (PEGE1 cells; passage 19, 3 μM PGE2, n=6): 69.0 μA
- Mean PGE2-stimulated Isc (PEGE1 cells; passage 44-51, 3 μM PGE2, n=5): 35.0 μA

Compound: NC(=NCc1ccccc1)NC(=O)c1nc(Cl)c(N)nc1N [benzamil]
- Mean benzamil-sensitive Isc (PEGE primary cells [1]; passage 4, 5 μM benzamil, n=12): 0.5 μA
- Mean benzamil-sensitive Isc (PEGE1 cells; passage 19, 5 μM benzamil, n=15): 1.6 μA
- Mean benzamil-sensitive Isc (PEGE1 cells; passage 44-51, 5 μM benzamil, n=15): 1.7 μA

Compound: O=C(O)c1cc([N+](=O)[O-])ccc1NCCCc1ccccc1 [NPPB, 5-nitro-2-(3phenylpropylamino) benzoic acid]
- Mean PGE2-stimulated NPPB-sensitive Isc (PEGE primary cells [1]; passage 4, 100 μM NPPB after 3 μM PGE2, n=5): 24.9 μA
- Mean 8 cpt cAMP-stimulated NPPB-sensitive Isc (PEGE primary cells [1]; passage 4, 100 μM NPPB after 50 μM 8 cpt cAMP, n=6): 17.6 μA
- Effect on PGE2- or cAMP-stimulated increase in Isc (PEGE primary cells [2]): blocked
- Mean PGE2-stimulated NPPB-sensitive Isc (PEGE1 cells; passage 19, 100 μM NPPB after 3 μM PGE2, n=6): 33.4 μA
- Mean 8 cpt cAMP-stimulated NPPB-sensitive Isc (PEGE1 cells; passage 19, 100 μM NPPB after 50 μM 8 cpt cAMP): 24.3 μA
- Mean PGE2-stimulated NPPB-sensitive Isc (PEGE1 cells; passage 44-51, 100 μM NPPB after 3 μM PGE2, n=5): 12.5 μA
- Mean 8 cpt cAMP-stimulated NPPB-sensitive Isc (PEGE1 cells; passage 44-51, 100 μM NPPB after 50 μM 8 cpt cAMP): 14.5 μA

Compound: COc1ccc2c(c1)c(CC(=O)O)c(C)n2C(=O)c1ccc(Cl)cc1 [indomethecin]
- Mean indomethecin-sensitive Isc (PEGE primary cells [1]; passage 4, 10 μM indomethecin, n=12): 3.4 μA
- Mean indomethecin-sensitive Isc (PEGE1 cells; passage 19, 10 μM indomethecin, n=15): 5.0 μA
- Mean indomethecin-sensitive Isc (PEGE1 cells; passage 44-51, 10 μM indomethecin, n=14): 0.6 μA

Compound: Nc1ncnc2c1nc(Sc1ccc(Cl)cc1)n2[C@@H]1O[C@@H]2COP(=O)(O)O[C@H]2[C@H]1O [8 cpt cAMP, 8(4-chlorophenylthiol) cAMP]
- Mean 8 cpt cAMP-stimulated Isc (PEGE primary cells [1]; passage 4, 50 μM 8 cpt cAMP, n=6): 25.9 μA
- Mean 8 cpt cAMP-stimulated Isc (PEGE1 cells; passage 19, 50 μM 8 cpt cAMP): 33.2 μA
- Mean 8 cpt cAMP-stimulated Isc (PEGE1 cells; passage 44-51, 50 μM 8 cpt cAMP): 15.6 μA
